Experimental findings from patent US8236935B2, “Gem-difluorinated C-glycoside compounds derived from podophyllotoxin, their preparation and their applications” (Institut National des Sciences Appliquees de Rouen (INSA), priority 2006, dated 2012) are described below.

By inhibition is commonly meant how much of the control response was suppressed. Usually IC50 stands for the concentration that inhibits the measured activity by half. Higher therefore signals lower potency.

Where “and” joins values, the source holds several entries; their conditions need not be identical. Equal values may be shown once.

What all share (format): cell-based
In data set [1] the test system is KB cells. The data set can be described thus: cytotoxicity test, inhibition of cellular growth, KB cells. Conditions: 10^−5M; for inhibition percentage of cellular growth / inhibition at 10 µM: triplicate; for inhibition at 10 µM: Homo sapiens, read-out: inhibition percentage of cellular growth. As to the method: (§1) The first cytotoxicity tests were conducted on different cell lines such as KB, PC3, MCF7 and MCF7R, SF268, HL60, HT29, A549 cells at concentrations of 10^−5M in triplicate. Podophyllotoxin 1 and etoposide 2 were also tested under the same conditions as standards.
(§2) The results are expressed as an inhibition percentage of cellular growth.

Data set [2] deals with PC3 cells. The data set can be described thus: cytotoxicity test, inhibition of cellular growth, PC3 cells. Conditions: triplicate; for inhibition percentage of cellular growth: 10^−5M. The procedure:
as §1, §2

Data set [3] has as its system MCF7 cells. The data set can be described thus: cytotoxicity test, inhibition of cellular growth, MCF7 cells. Conditions: 10^−5M, triplicate. The procedure:
as §1, §2

The test system of data set [4] is MCF7R cells. Description: cytotoxicity test, inhibition of cellular growth, MCF7R cells. The conditions noted are these: 10^−5M, triplicate. The procedure: as §1, §2
For data set [5], the system named is SF268 cells. The data set can be described thus: cytotoxicity test, inhibition of cellular growth, SF268 cells. Conditions: triplicate; for inhibition percentage of cellular growth: 10^−5M. As to the method:
as §1, §2

For data set [6], the system named is HL60 cells. The data set can be described thus: cytotoxicity test, inhibition of cellular growth, HL60 cells. The conditions noted are these: triplicate; for inhibition percentage of cellular growth: 10^−5M. The procedure:
as §1, §2

The test system of data set [7] is HT29 cells. Description: cytotoxicity test, inhibition of cellular growth, HT29 cells. Conditions: triplicate; for inhibition percentage of cellular growth: 10^−5M. The procedure: as §1, §2
Data set [8] concerns A549 cells. Description: cytotoxicity test, inhibition of cellular growth, A549 cells. The conditions noted are these: 10^−5M, triplicate. The procedure:
as §1, §2

Data set [9] has as its system KB cells. The data set can be described thus: IC50 of cytotoxicity on KB cells. The conditions noted are these: in duplicate (two values per cell, separated by /). An excerpt:
The IC50 values are expressed in μM on KB cells in duplicate and were obtained for the […] leading compounds, i.e. 27a, 32a, 44a, 37a and 46a in parallel with podophyllotoxin and etoposide.

The test system of data set [10] is KB, PC3, MCF7 and MCF7R, SF268, HL60, HT29, A549 cells. The data set can be described thus: cytotoxicity tests on the panel of cell lines, overall comparison with standards. Conditions: 10^−5M. The procedure:
as §1, §2

[11] abbreviates: Homo sapiens, read-out: inhibition percentage of cellular growth.

Turning to `COc1cc(C2c3cc4c(cc3C(NC(=O)C(F)(F)C3(O)OC5COC(C)OC5C(O)C3O)C3COC(=O)C23)OCO4)cc(OC)c1OC` (stereo not shown) [29a], the “inhibition percentage of cellular growth” value in [1] came out at 66%; in data set [2] it was 8%; in [3], 40%; in data set [4], 44%; in [5], 11%; in data set [6], 17%. Moreover, the results for the “inhibition percentage of cellular growth” value in data set [7] and in data set [8] were 17% and 6%, respectively.
Take `COc1cc(C2c3cc4c(cc3C(NC(=O)C(F)(F)C3(O)OC5COC(C)OC5C(O)C3O)C3COC(=O)C23)OCO4)cc(OC)c1OC` (stereo not shown) [29b]: the “inhibition percentage of cellular growth” value in [1] is listed as 0%; in data set [2] it was 3%; in [3], 7%; in data set [4], 7%; in data set [5] it was 6%; in [6] it was 0%. Besides, the results for the “inhibition percentage of cellular growth” value in data set [7] and in [8] were 6% and 1%, respectively.
Consider `COc1cc([C@@H]2c3cc4c(cc3[C@@H](O[C@@H]3O[C@@H]5CO[C@@H](C)O[C@H]5[C@H](O)[C@H]3O)[C@H]3COC(=O)[C@H]23)OCO4)cc(OC)c1O` [Etoposide, etoposide, reference compound], for which the “inhibition percentage of cellular growth” value in [1] is recorded as 84%; in data set [2] it was 47%; in [3] it was 57%; in [4], 22%; in data set [5], 82%; in data set [6] it was 75%. For the same compound, the entries for the “inhibition percentage of cellular growth” value in data set [7] and in [8] were 79% and 65%, respectively.
`COc1cc([C@@H]2c3cc4c(cc3[C@H](O)[C@H]3COC(=O)[C@H]23)OCO4)cc(OC)c1OC` [Podophyllotoxin 1, Podophyllotoxin]: the inhibition at 10 µM came out at 90% in [1]; 65% in [2] (Homo sapiens, PC-3, 10^−5M, read-out: inhibition percentage of cellular growth); 55% in [3] (setting [11]); 55% in [4] (setting [11]); 74% in [5] (Homo sapiens, SF-268, 10^−5M, read-out: inhibition percentage of cellular growth); 74% in data set [6] (Homo sapiens, HL-60, 10^−5M, read-out: inhibition percentage of cellular growth). In addition, the inhibition at 10 µM in data set [7] (Homo sapiens, HT-29, 10^−5M, read-out: inhibition percentage of cellular growth) was 84%; in [8] (setting [11]), 83%. Besides, the IC50 in data set [9] (Homo sapiens, KB) worked out at 15 nM; in [9] it was 22 nM.
Take `COc1cc([C@@H]2c3cc4c(cc3[C@@H](NC(=O)C(F)(F)[C@]3(O)O[C@H](CO)[C@@H](O)[C@H](O)[C@H]3O)[C@H]3COC(=O)[C@H]23)OCO4)cc(OC)c1O` [compound 26a]: the “inhibition percentage of cellular growth” value is listed as 43% in data set [1]; 10% in [2]; 37% in data set [3]; 35% in data set [4]; 7% in [5]; 17% in data set [6]. Further, the “inhibition percentage of cellular growth” value in [7] is 10%; in data set [8], 23%.
On to `COc1cc([C@@H]2c3cc4c(cc3[C@@H](NC(=O)C(F)(F)[C@]3(O)O[C@H](CO)[C@H](O)[C@H](O)[C@H]3O)[C@H]3COC(=O)[C@H]23)OCO4)cc(OC)c1O` [compound 26b], for which the “inhibition percentage of cellular growth” value in [1] was 12%; in data set [2], 8%; in [3], 20%; in data set [4] it was 16%; in data set [5] it was 7%; in data set [6], 19%. Also, the results for the “inhibition percentage of cellular growth” value in [7] and in [8] were 13% and 7%, respectively.
On to `COc1cc(C2c3cc4c(cc3C(NC(=O)C(F)(F)C3(O)OC(CO)C(O)C(O)C3O)C3COC(=O)C23)OCO4)cc(OC)c1OC` (stereo not shown) [compound 27a], for which the “inhibition percentage of cellular growth” value in data set [1] came to 91%; in data set [2], 63%; in data set [3] it was 53%; in [4], 70%; in [5] it was 65%; in data set [6], 79%. Further, the “inhibition percentage of cellular growth” value stood at 87% in [7] and 78% in [8]. Besides, the half-inhibitory concentration (IC50) in data set [9] was 3450 nM and 2550 nM. Further, the “activity compared with etoposide and podophyllotoxin (in words)” value in [10] was “activity comparable with that of etoposide and of podophyllotoxin, and even better on certain cell lines”.
Consider `COc1cc(C2c3cc4c(cc3C(NC(=O)C(F)(F)C3(O)OC(CO)C(O)C(O)C3O)C3COC(=O)C23)OCO4)cc(OC)c1OC` (stereo not shown) [compound 27b], for which the “inhibition percentage of cellular growth” value in data set [1] was found to be 12%; in data set [2], 8%; in [3], 20%; in data set [4] it was 10%; in data set [5], 7%; in data set [6], 19%. For the same compound, the “inhibition percentage of cellular growth” value in [7] came out at 8%; in [8], 6%.
Regarding `COc1cc([C@@H]2c3cc4c(cc3[C@@H](N(C)C(=O)C(F)(F)[C@]3(O)O[C@H](COCc5ccccc5)[C@@H](OCc5ccccc5)[C@H](OCc5ccccc5)[C@H]3OCc3ccccc3)C3COC(=O)[C@@H]32)OCO4)cc(OC)c1OC` (stereo partly shown) [compound 31a], the inhibition at 10 µM in data set [1] is 22%.
As to `COc1cc(C2c3cc4c(cc3C(NCC(F)(F)C3(O)OC(CO)C(O)C(O)C3O)C3COC(=O)C23)OCO4)cc(OC)c1OC` (stereo not shown) [compound 32a], in data set [1], the “cytotoxicity compared with etoposide and podophyllotoxin (in words)” value was “cytotoxicity close to that of etoposide and podophyllotoxin”; the “inhibition percentage of cellular growth” value was 94%.
In the case of `COc1cc([C@@H]2c3cc4c(cc3[C@@H](NC(=O)C(F)(F)C3(Cl)O[C@H](CO)[C@@H](O)[C@H](O)[C@H]3O)C3COC(=O)[C@@H]32)OCO4)cc(OC)c1OC` (stereo partly shown) [compound 37a], in data set [1], the “cytotoxicity compared with etoposide and podophyllotoxin (in words)” value is “cytotoxicity close to that of etoposide and podophyllotoxin”; the inhibition at 10 µM amounted to 91%. Further, the IC50 in data set [9] (Homo sapiens, KB) stood at 273 nM. The same compound showed an IC50 in [9] of 306 nM.
With `COc1cc([C@@H]2c3cc4c(cc3[C@@H](NC(=O)C(F)(F)[C@@H]3O[C@H](CO)[C@@H](O)[C@H](O)[C@H]3O)C3COC(=O)[C@@H]32)OCO4)cc(OC)c1OC` (stereo partly shown) [compound 44a], in [1], the “cytotoxicity compared with etoposide and podophyllotoxin (in words)” value was “cytotoxicity close to that of etoposide and podophyllotoxin”; the inhibition at 10 µM was 90%. For the same compound, inhibition in [9] (Homo sapiens, KB) was half-maximal at 323 nM (IC50). For the same compound, the IC50 in data set [9] was 341 nM.
`COc1cc(C2c3cc4c(cc3C(NCC(F)(F)C3(O)OC5COC(C)OC5C(O)C3O)C3COC(=O)C23)OCO4)cc(OC)c1OC` (stereo not shown) [compound 46a]: in data set [1], the “cytotoxicity compared with etoposide and podophyllotoxin (in words)” value was “cytotoxicity close to that of etoposide and podophyllotoxin”; the “inhibition percentage of cellular growth” value was determined as 86%. For the same compound, the IC50 in [9] was 4710 nM and 6030 nM.
